Laboratory results from paper PMC11148045, “Structural basis for recognition of 26RFa by the pyroglutamylated RFamide peptide receptor” (Cell Discovery, 2024).
No end group written: not given here.

What was measured:
Experiment in all cases: 26RFa-induced calcium mobilization, receptor mutants
QRFPR mutants [1] = biological target: T1, QRFPR mutants (Homo sapiens, UniProt Q96P65); assay type: cell-based
T1 construct: expressed in transfected cells; host or cells: HEK293, transient transfection by electroporation
T1 sequence (Q96P65 39-431, change not shown): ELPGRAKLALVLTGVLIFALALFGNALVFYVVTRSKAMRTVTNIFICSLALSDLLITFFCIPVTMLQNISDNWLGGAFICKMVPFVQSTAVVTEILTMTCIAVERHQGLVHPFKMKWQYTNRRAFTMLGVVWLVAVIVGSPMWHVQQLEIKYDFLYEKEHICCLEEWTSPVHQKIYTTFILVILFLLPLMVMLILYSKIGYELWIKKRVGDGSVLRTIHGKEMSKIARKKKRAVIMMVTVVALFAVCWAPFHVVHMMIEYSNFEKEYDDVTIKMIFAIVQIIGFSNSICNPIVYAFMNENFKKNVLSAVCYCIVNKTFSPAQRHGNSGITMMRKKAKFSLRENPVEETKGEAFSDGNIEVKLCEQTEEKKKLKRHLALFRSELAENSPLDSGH
Procedure: (§1) The gene encoding the WT QRFPR, PrPRR, KISS1R, NPFF1R, or NPFF2R was subcloned into the pcDNA3.0 vector with the addition of an N-terminal HA tag. All of the mutations used for functional studies were generated by QuickChange PCR and verified by DNA sequencing.
(§2) HEK293 cells were obtained from ATCC (Manassas, VA, USA) and cultured in DMEM supplemented with 10% (v/v) FBS, 100 mg/L penicillin, and 100 mg/L streptomycin in 5% CO2 at 37 °C. For transient transfection, ~2.5 × 10^6 cells were mixed with 2 µg plasmids in 200 µL transfection buffer, and electroporation was carried out with a Scientz-2C electroporation apparatus (Scientz Biotech, Ningbo, China). The experiments were carried out 24 h after transfection.
(§3) For QRFPR, PrRPR, and KISS1R, HEK293 cells transfected with WT receptor or its mutants were seeded at a density of 4 × 10^4 per well into 96-well culture plates and incubated for 24 h at 37 °C in 5% CO2. For NPFF1R and NPFF2R, plasmids were transfected into HEK293 cells stably expressing Gα16. On the next day, cells were incubated with 2 μmol/L Fluo-4 AM in HBSS supplemented with 5.6 mmol/L D-glucose and 250 μmol/L sulfinpyrazone at 37 °C for 45 min. After washing, cells were added with 50 μL HBSS and incubated at room temperature for 10 min, then 25 μL agonist buffer was dispensed into the well using a FlexStation III microplate reader (Molecular Devices), and intracellular calcium change was recorded at an excitation wavelength of 485 nm and an emission wavelength of 525 nm. EC50 and Emax values for each curve were calculated by Prism 8.0 software (GraphPad Software).

QRFPR mutants [2] = biological target: T2, QRFPR mutants (Homo sapiens, UniProt Q96P65, C200A); assay type: cell-based; details: HEK293, QRFPR C200^ECL2A; HEK293, Fluo-4; mean ± S.E.M., n ≥ 3
T2 construct: expressed in transfected cells; host or cells: HEK293, transient transfection by electroporation
T2 sequence (Q96P65 whole entry C200A): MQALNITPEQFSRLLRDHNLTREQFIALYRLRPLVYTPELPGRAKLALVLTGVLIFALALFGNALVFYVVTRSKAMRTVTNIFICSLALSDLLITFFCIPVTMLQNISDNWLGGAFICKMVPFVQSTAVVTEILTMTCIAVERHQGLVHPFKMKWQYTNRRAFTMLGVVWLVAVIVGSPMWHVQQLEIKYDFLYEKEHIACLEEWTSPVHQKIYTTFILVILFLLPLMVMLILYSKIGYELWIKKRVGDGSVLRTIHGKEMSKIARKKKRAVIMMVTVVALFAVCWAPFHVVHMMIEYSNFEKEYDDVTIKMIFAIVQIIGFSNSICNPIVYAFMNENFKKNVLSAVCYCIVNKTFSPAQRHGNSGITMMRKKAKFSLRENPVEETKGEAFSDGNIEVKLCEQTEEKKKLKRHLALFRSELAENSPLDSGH
Procedure: as §1, §2, §3

QRFPR mutants [3] = biological target: T3, QRFPR mutants (Homo sapiens, UniProt Q96P65, E297A); assay type: cell-based
T3 construct: expressed in transfected cells; host or cells: HEK293, transient transfection by electroporation
T3 sequence (Q96P65 whole entry E297A): as the sequence (Q96P65 whole entry C200A) above, with A200C, E297A counted along it
Procedure: as §1, §2, §3

QRFPR mutants [4] = biological target: T4, QRFPR mutants (Homo sapiens, UniProt Q96P65, F322A); assay type: cell-based; details: HEK293, QRFPR F322^7.43A; HEK293, Fluo-4; mean ± S.E.M., n ≥ 3
T4 construct: expressed in transfected cells; host or cells: HEK293, transient transfection by electroporation
T4 sequence (Q96P65 whole entry F322A): as the sequence (Q96P65 whole entry C200A) above, with A200C, F322A counted along it
Procedure: as §1, §2, §3

QRFPR mutants [5] = biological target: T5, QRFPR mutants (Homo sapiens, UniProt Q96P65, I199A); assay type: cell-based; details: HEK293, QRFPR I199^ECL2A; HEK293, Fluo-4; mean ± S.E.M., n ≥ 3
T5 construct: expressed in transfected cells; host or cells: HEK293, transient transfection by electroporation
T5 sequence (Q96P65 whole entry I199A): as the sequence (Q96P65 whole entry C200A) above, with I199A, A200C counted along it
Procedure: as §1, §2, §3

QRFPR mutants [6] = biological target: T6, QRFPR mutants (Homo sapiens, UniProt Q96P65, I218A); assay type: cell-based; details: HEK293, QRFPR I218^5.42A; HEK293, Fluo-4; mean ± S.E.M., n ≥ 3
T6 construct: expressed in transfected cells; host or cells: HEK293, transient transfection by electroporation
T6 sequence (Q96P65 whole entry I218A): as the sequence (Q96P65 whole entry C200A) above, with A200C, I218A counted along it
Procedure: as §1, §2, §3

QRFPR mutants [7] = biological target: T7, QRFPR mutants (Homo sapiens, UniProt Q96P65, L104A); assay type: cell-based; details: HEK293, QRFPR L104^2.62A; HEK293, Fluo-4; mean ± S.E.M., n ≥ 3
T7 construct: expressed in transfected cells; host or cells: HEK293, transient transfection by electroporation
T7 sequence (Q96P65 whole entry L104A): as the sequence (Q96P65 whole entry C200A) above, with L104A, A200C counted along it
Procedure: as §1, §2, §3

QRFPR mutants [8] = biological target: T8, QRFPR mutants (Homo sapiens, UniProt Q96P65, L222A); assay type: cell-based
T8 construct: expressed in transfected cells; host or cells: HEK293, transient transfection by electroporation
T8 sequence (Q96P65 whole entry L222A): as the sequence (Q96P65 whole entry C200A) above, with A200C, L222A counted along it
Procedure: as §1, §2, §3

QRFPR mutants [9] = biological target: T9, QRFPR mutants (Homo sapiens, UniProt Q96P65, Q105A); assay type: cell-based; details: HEK293, QRFPR Q105^2.63A; HEK293, Fluo-4; mean ± S.E.M., n ≥ 3
T9 construct: expressed in transfected cells; host or cells: HEK293, transient transfection by electroporation
T9 sequence (Q96P65 whole entry Q105A): as the sequence (Q96P65 whole entry C200A) above, with Q105A, A200C counted along it
Procedure: as §1, §2, §3

QRFPR mutants [10] = biological target: T10, QRFPR mutants (Homo sapiens, UniProt Q96P65, Q125A); assay type: cell-based; details: HEK293, QRFPR Q125^3.32A; HEK293, Fluo-4; mean ± S.E.M., n ≥ 3
T10 construct: expressed in transfected cells; host or cells: HEK293, transient transfection by electroporation
T10 sequence (Q96P65 whole entry Q125A): as the sequence (Q96P65 whole entry C200A) above, with Q125A, A200C counted along it
Procedure: as §1, §2, §3

QRFPR mutants [11] = biological target: T11, QRFPR mutants (Homo sapiens, UniProt Q96P65, Q184A); assay type: cell-based; details: HEK293, QRFPR Q184^4.64A; HEK293, Fluo-4; mean ± S.E.M., n ≥ 3
T11 construct: expressed in transfected cells; host or cells: HEK293, transient transfection by electroporation
T11 sequence (Q96P65 whole entry Q184A): as the sequence (Q96P65 whole entry C200A) above, with Q184A, A200C counted along it
Procedure: as §1, §2, §3

QRFPR mutants [12] = biological target: T12, QRFPR mutants (Homo sapiens, UniProt Q96P65, Q318A); assay type: cell-based; details: HEK293, QRFPR Q318^7.39A; HEK293, Fluo-4; mean ± S.E.M., n ≥ 3
T12 construct: expressed in transfected cells; host or cells: HEK293, transient transfection by electroporation
T12 sequence (Q96P65 whole entry Q318A): as the sequence (Q96P65 whole entry C200A) above, with A200C, Q318A counted along it
Procedure: as §1, §2, §3

QRFPR mutants [13] = biological target: T13, QRFPR mutants (Homo sapiens, UniProt Q96P65, S126A); assay type: cell-based; details: HEK293, QRFPR S126^3.33A; HEK293, Fluo-4; mean ± S.E.M., n ≥ 3
T13 construct: expressed in transfected cells; host or cells: HEK293, transient transfection by electroporation
T13 sequence (Q96P65 whole entry S126A): as the sequence (Q96P65 whole entry C200A) above, with S126A, A200C counted along it
Procedure: as §1, §2, §3

QRFPR mutants [14] = biological target: T14, QRFPR mutants (Homo sapiens, UniProt Q96P65, T215A); assay type: cell-based; details: HEK293, QRFPR T215^5.39A; HEK293, Fluo-4; mean ± S.E.M., n ≥ 3
T14 construct: expressed in transfected cells; host or cells: HEK293, transient transfection by electroporation
T14 sequence (Q96P65 whole entry T215A): as the sequence (Q96P65 whole entry C200A) above, with A200C, T215A counted along it
Procedure: as §1, §2, §3

QRFPR mutants [15] = biological target: T15, QRFPR mutants (Homo sapiens, UniProt Q96P65, V121A); assay type: cell-based; details: HEK293, QRFPR V121^3.28A; HEK293, Fluo-4; mean ± S.E.M., n ≥ 3
T15 construct: expressed in transfected cells; host or cells: HEK293, transient transfection by electroporation
T15 sequence (Q96P65 whole entry V121A): as the sequence (Q96P65 whole entry C200A) above, with V121A, A200C counted along it
Procedure: as §1, §2, §3

QRFPR mutants [16] = biological target: T16, QRFPR mutants (Homo sapiens, UniProt Q96P65, W111A); assay type: cell-based; details: HEK293, QRFPR W111^23.50A; HEK293, Fluo-4; mean ± S.E.M., n ≥ 3
T16 construct: expressed in transfected cells; host or cells: HEK293, transient transfection by electroporation
T16 sequence (Q96P65 whole entry W111A): as the sequence (Q96P65 whole entry C200A) above, with W111A, A200C counted along it
Procedure: as §1, §2, §3

QRFPR mutants [17] = biological target: T17, QRFPR mutants (Homo sapiens, UniProt Q96P65, W286A); assay type: cell-based; details: HEK293, QRFPR W286^6.48A; HEK293, Fluo-4; mean ± S.E.M., n ≥ 3
T17 construct: expressed in transfected cells; host or cells: HEK293, transient transfection by electroporation
T17 sequence (Q96P65 whole entry W286A): as the sequence (Q96P65 whole entry C200A) above, with A200C, W286A counted along it
Procedure: as §1, §2, §3

QRFPR mutants [18] = assay type: cell-based, human
Procedure: as §1, §2, §3

ASGPLGTLAEELSSYSRRKGGFSFRF-NH2 [26RFa]
Emax (QRFPR mutants [1]; HEK293, QRFPR Δ1-38, HEK293, Fluo-4, mean ± S.E.M., n ≥ 3): 14.7 ± 1.5% | peptide-induced QRFPR activity (QRFPR mutants [1]; QRFPR Δ1–38 (entire N-terminus truncated)): abolished the peptide-induced QRFPR activity | Emax (QRFPR mutants [2]): 88.5 ± 1.2% | Emax (QRFPR mutants [3]; HEK293, QRFPR E297^6.59A, HEK293, Fluo-4, mean ± S.E.M., n ≥ 3): 107 ± 0.8% | effect of mutation on 26RFa activity (QRFPR mutants [3]; QRFPR 6.59 to alanine (printed D^6.59)): almost did not affect 26RFa activity | Emax (QRFPR mutants [4]): 11.1 ± 0.26% | Emax (QRFPR mutants [5]): 89.7 ± 2.3% | Emax (QRFPR mutants [6]): 77.8 ± 0.31% | Emax (QRFPR mutants [7]): 109 ± 0.69% | effect of L^5.46 on peptide activity (QRFPR mutants [8]; 26RFa, QRFPR L^5.46 (Supplementary Fig. S3)): negligible effects | Emax (QRFPR mutants [8]; HEK293, QRFPR L222^5.46A, HEK293, Fluo-4, mean ± S.E.M., n ≥ 3): 99 ± 1.3% | Emax (QRFPR mutants [9]): 83.8 ± 3.1% | Emax (QRFPR mutants [10]): 14.1 ± 1.8% | Emax (QRFPR mutants [11]): 71.4 ± 2.2% | Emax (QRFPR mutants [12]): 1.69 ± 0.66% | Emax (QRFPR mutants [13]): 92.3 ± 4.1% | Emax (QRFPR mutants [14]): 85.8 ± 3.4% | Emax (QRFPR mutants [15]): 106 ± 5.4% | Emax (QRFPR mutants [16]): 73.4 ± 1.7% | Emax (QRFPR mutants [17]): 1.8 ± 0.38% | role of Q^3.32 and Q/H^7.39 in activity (QRFPR mutants [18]; 26RFa, QRFPR): critical for the activity | effect of mutation on QRFPR activation (QRFPR mutants [18]; alanine substitution of W111^23.50 and two conserved cysteines (C118^3.25, C201^45.50)): notably hampered QRFPR activation | role of residues in 26RFa-induced receptor activation (QRFPR mutants [18]; residues around Arg25-Phe26-amide except I218^5.42 (E203, Q318, Y214, V129, F289, Q125, C98, F322)): essential for 26RFa-induced receptor activation
